Earlier results on two compounds are cited in patent publication US20040057977A1, “Water-based pest bait compositions having water-sensitive insecticides and methods of making and use thereof” (priority 1999, published 2004).

In one series the test system is cockroaches. As to conditions: in vivo.
For series [1] the following is noted: in vivo.

With `OB(O)O` [boric acid], in the series with cockroaches, the “time to kill cockroaches” value is listed as “roughly one week”. In addition, the “eye and lung irritation” value in series [1] is “slight eye and lung irritation”.
For `COP(=O)(NC(C)=O)SC` (stereo not drawn) [Acephate, O,S-dimethyl acetylphosphoramidothioate], the “time to kill cockroaches” value with cockroaches was “within about two hours”.
